{"source": "ChEMBL document CHEMBL1201862", "about": "“PubChem BioAssay data set” (2004)", "key": {"[1]": {"molecular_target": "T1, Sentrin-specific protease 8 (Homo sapiens, UniProt Q96LD8)", "T1 sequence (Q96LD8 whole entry)": "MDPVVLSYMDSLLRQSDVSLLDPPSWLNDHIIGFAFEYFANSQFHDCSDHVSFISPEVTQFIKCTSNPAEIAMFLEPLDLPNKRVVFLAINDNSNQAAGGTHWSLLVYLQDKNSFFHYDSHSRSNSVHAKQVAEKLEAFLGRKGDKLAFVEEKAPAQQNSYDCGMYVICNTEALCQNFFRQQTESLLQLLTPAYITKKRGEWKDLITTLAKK", "type": "functional"}, "[2]": {"molecular_target": "T1, Sentrin-specific protease 8", "type": "functional", "remark": "listed apart in the source"}, "[3]": {"assay": "viability loss in HEK293T cells – cell-based, cherry-picks, cytotoxicity control for HIV Vif inhibitor project, dose response (AID 652208)", "type": "functional"}, "[4]": {"molecular_target": "ADP-ribosylation factor GTPase-activating protein 1 (Rattus norvegicus, UniProt Q62848)", "sequence (Q62848 whole entry)": "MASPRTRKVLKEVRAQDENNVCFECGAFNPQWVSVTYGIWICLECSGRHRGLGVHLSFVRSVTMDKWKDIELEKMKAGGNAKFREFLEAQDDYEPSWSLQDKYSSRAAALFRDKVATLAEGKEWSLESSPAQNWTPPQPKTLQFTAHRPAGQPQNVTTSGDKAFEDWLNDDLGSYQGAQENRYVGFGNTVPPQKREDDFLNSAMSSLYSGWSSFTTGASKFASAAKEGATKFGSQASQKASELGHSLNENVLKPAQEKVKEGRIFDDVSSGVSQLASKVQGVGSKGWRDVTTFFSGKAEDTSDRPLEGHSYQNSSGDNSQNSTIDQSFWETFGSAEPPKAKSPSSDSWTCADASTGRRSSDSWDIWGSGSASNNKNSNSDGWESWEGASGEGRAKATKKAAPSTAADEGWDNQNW", "assay": "Fluorescence polarization-based biochemical high throughput dose response screening assay to identify inhibitors of ADP-ribosylation factor GTPase activating protein 1 (ARFGAP1).", "type": "functional"}, "[5]": {"molecular_target": "Nuclear receptor subfamily 5 group A member 2 (Homo sapiens, UniProt O00482)", "sequence (O00482 whole entry)": "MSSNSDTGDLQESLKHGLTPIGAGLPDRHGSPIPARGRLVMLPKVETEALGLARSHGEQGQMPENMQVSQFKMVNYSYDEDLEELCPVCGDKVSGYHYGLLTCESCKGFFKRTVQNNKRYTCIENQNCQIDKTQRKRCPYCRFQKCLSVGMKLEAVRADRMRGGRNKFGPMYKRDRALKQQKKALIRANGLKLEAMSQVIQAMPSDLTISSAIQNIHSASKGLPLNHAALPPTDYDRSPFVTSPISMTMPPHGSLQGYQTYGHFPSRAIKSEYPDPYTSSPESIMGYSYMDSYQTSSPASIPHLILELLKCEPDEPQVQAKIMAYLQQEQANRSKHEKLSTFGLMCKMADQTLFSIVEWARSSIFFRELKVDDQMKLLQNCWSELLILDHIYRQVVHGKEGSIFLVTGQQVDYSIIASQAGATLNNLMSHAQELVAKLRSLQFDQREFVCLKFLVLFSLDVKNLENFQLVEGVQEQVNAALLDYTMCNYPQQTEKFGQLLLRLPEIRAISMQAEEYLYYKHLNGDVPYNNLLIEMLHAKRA", "type": "functional, cell-based"}, "[6]": {"assay": "nonselective StAR promoter luciferase inhibitors – cell-based, luminescence, luciferase reporter, counter-screen for LRH-1 inverse agonist project, dose response (AID 651969)", "type": "functional"}, "Steroidogenic factor 1": {"molecular_target": "Steroidogenic factor 1 (Homo sapiens, UniProt Q13285)", "sequence (Q13285 whole entry)": "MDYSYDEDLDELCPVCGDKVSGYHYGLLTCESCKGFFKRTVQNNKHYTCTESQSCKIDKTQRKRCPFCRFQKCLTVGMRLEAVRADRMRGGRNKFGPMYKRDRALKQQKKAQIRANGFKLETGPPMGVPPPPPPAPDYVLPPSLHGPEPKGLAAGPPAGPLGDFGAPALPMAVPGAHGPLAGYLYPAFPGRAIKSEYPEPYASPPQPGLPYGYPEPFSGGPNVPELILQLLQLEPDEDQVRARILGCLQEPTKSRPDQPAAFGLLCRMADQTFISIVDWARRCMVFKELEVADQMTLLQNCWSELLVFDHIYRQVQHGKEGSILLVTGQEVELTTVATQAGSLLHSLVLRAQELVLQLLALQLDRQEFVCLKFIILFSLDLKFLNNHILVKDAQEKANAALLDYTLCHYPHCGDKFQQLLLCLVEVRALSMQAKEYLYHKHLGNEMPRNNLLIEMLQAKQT", "assay": "Counterscreen for inverse agonists of the liver receptor homolog-1 (LRH-1; NR5A2): Luminescence-based cell-based high throughput dose response assay to identify inverse agonists of the Steroidogenic Factor 1 Nuclear Receptor (SF1; NR5A1).", "type": "functional"}, "[7]": {"molecular_target": "T2, Intestinal-type alkaline phosphatase (Homo sapiens, UniProt P09923)", "T2 sequence (P09923 whole entry)": "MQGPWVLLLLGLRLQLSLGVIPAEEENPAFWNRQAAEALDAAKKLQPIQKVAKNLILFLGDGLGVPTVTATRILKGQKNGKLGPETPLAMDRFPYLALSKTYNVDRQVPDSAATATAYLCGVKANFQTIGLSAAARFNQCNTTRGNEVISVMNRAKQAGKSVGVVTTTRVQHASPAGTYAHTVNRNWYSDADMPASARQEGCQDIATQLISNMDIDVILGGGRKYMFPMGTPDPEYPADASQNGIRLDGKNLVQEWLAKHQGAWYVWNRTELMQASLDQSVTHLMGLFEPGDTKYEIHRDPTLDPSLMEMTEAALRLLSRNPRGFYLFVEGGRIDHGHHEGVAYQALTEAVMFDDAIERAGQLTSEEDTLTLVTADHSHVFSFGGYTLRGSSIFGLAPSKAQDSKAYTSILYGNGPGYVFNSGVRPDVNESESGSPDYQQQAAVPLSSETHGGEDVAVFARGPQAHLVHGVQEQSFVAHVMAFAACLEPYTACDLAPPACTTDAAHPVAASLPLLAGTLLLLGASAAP", "assay": "human intestinal alkaline phosphatase activators, dose response, biochemical, luminescence, uHTS hits (AID 463120)", "type": "functional"}, "Albumin": {"molecular_target": "Albumin (Bos taurus, UniProt P02769)", "sequence (P02769 whole entry)": "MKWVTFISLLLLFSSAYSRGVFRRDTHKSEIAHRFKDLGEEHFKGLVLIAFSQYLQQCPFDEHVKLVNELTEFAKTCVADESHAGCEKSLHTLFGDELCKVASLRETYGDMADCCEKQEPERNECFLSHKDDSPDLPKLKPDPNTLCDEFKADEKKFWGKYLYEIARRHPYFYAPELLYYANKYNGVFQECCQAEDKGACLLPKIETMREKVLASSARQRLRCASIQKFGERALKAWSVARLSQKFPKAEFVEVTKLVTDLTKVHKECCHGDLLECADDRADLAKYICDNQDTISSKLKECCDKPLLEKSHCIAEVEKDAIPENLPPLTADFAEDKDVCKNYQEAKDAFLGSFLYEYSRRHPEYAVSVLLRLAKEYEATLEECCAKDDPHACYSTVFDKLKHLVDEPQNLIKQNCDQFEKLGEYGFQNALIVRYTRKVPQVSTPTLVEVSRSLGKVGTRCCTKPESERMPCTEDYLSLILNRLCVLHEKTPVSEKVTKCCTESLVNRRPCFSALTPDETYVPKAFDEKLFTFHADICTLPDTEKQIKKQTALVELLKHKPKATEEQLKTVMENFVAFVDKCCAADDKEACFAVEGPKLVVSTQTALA", "assay": "Counterscreen for inhibitors of T-cell receptor (TCR)-CD3 interaction: Fluorescence-based biochemical high throughput dose response assay to identify inhibitors of T-cell receptor (TCR)-CD3 interaction using a TAMRA-labeled BSA probe.", "type": "functional"}, "[8]": {"molecular_target": "Intestinal-type alkaline phosphatase (Mus musculus, UniProt P24822)", "sequence (P24822 whole entry)": "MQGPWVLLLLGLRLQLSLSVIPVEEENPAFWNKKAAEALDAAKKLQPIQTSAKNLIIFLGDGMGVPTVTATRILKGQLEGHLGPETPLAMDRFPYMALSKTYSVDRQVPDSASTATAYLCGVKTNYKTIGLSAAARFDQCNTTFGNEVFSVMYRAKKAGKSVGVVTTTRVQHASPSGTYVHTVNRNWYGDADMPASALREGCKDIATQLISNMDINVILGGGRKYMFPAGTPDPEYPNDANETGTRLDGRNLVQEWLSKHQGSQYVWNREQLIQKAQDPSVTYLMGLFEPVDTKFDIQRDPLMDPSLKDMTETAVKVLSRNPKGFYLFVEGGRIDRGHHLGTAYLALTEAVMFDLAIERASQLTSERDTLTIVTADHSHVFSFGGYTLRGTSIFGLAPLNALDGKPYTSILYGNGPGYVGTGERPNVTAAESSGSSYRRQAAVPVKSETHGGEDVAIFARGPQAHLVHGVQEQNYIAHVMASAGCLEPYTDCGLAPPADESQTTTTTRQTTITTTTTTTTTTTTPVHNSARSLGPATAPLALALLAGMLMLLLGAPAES", "assay": "PubChem AID 488875", "type": "functional"}, "[9]": {"molecular_target": "T2, Intestinal-type alkaline phosphatase", "assay": "activation of human intestinal alkaline phosphatase – biochemical, luminescent, uHTS hits, set 2, dose response (AID 488817);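 further: potency of activators that raise enzyme activity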", "type": "functional"}, "[10]": {"molecular_target": "T3, Alkaline phosphatase, tissue-nonspecific isozyme (Homo sapiens, UniProt P05186)", "T3 sequence (P05186 whole entry)": "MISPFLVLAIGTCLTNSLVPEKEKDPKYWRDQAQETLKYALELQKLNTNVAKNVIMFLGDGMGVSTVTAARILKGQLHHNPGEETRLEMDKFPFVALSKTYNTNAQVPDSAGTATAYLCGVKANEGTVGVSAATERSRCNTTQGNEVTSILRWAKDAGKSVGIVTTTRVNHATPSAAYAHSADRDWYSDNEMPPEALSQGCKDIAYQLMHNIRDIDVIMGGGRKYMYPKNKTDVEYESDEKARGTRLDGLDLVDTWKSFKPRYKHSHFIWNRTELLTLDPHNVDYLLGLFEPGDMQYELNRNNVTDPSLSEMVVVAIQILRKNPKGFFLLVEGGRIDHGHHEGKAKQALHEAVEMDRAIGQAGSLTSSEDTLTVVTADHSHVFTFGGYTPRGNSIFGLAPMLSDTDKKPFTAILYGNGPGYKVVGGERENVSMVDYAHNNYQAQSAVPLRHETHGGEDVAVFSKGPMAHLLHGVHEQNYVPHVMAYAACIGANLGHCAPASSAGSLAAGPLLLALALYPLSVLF", "assay": "activation of tissue-nonspecific alkaline phosphatase – biochemical, TNAP isozyme, human IAP uHTS hits, selectivity assay for human IAP activator project, dose response (AID 488886);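 further: potency of compounds raising TNAP activity as a selectivity check on IAP activators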", "type": "functional"}, "Galanin receptor type 3": {"molecular_target": "Galanin receptor type 3 (Homo sapiens, UniProt O60755)", "sequence (O60755 whole entry)": "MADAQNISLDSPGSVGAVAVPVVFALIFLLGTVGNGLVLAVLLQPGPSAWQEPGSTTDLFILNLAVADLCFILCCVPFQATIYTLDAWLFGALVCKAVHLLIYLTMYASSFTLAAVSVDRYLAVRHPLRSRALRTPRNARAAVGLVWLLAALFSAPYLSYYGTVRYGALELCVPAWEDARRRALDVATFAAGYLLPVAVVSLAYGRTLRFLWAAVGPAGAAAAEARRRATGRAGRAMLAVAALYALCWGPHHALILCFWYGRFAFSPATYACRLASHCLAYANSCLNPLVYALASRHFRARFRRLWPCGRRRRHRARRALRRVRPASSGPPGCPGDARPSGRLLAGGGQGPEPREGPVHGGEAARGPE", "assay": "Fluorescence-based cell-based primary high throughput dose response assay to identify antagonists of the Galanin Receptor 3 (GalR3).", "type": "functional"}, "cells": {"assay": "cells", "type": "functional, cell-based", "conditions": "HEK-CNG"}, "Beta Lactamase [11]": {"molecular_target": "T4, Beta Lactamase (Pseudomonas aeruginosa, UniProt Q932Y6)", "T4 sequence (Q932Y6 whole entry)": "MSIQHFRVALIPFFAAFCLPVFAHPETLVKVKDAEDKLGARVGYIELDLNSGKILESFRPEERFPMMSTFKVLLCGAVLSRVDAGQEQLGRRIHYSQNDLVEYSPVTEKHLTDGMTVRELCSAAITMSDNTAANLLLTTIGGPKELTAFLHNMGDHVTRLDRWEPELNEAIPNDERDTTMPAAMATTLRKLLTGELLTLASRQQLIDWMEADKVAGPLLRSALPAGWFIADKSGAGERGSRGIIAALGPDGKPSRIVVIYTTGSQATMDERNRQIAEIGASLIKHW", "assay": "Ki and modality of VIM-2 inhibitors – biochemical, probe results, mechanism study, late-stage follow-up, panel member Nitrocefin-based IMP1 Inhibition Counterscreen (AID 2128)"}, "Beta-lactamase [12]": {"molecular_target": "T5, Beta-lactamase (Pseudomonas aeruginosa, UniProt Q79MP6)", "T5 sequence (Q79MP6 whole entry)": "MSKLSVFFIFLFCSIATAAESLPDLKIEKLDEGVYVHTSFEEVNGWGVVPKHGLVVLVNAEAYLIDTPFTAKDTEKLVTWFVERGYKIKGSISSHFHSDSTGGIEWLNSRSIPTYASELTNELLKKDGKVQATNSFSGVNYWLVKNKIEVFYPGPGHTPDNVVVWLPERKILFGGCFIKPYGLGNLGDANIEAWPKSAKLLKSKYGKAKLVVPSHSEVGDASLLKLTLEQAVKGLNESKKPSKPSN", "assay": "inhibition of IMP-1 beta-lactamase activity – biochemical, epi-absorbance, selectivity assay for VIM-2 inhibitor project, dose response (AID 1920)"}, "Beta Lactamase [13]": {"molecular_target": "T4, Beta Lactamase", "assay": "Ki and modality of VIM-2 inhibitors – biochemical, probe results, mechanism study, late-stage follow-up, panel member Nitrocefin-based VIM2 Inhibition Assay (AID 2128)"}, "Beta-lactamase [14]": {"molecular_target": "T6, Beta-lactamase (Salmonella choleraesuis (strain SC-B67), UniProt Q5J463)", "T6 sequence (Q5J463 whole entry)": "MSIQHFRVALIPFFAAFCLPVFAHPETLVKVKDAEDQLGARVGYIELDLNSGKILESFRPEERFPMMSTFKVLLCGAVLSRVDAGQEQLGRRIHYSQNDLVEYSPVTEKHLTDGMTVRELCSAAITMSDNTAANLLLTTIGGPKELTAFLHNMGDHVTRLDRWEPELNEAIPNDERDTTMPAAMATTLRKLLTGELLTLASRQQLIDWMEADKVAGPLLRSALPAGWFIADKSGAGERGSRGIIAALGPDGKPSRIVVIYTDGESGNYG", "assay": "Epi-absorbance-based counterscreen for selective VIM-2 inhibitors: dose response biochemical high throughput screening assay to identify inhibitors of TEM-1 serine-beta-lactamase."}, "Beta-lactamase [15]": {"molecular_target": "T5, Beta-lactamase", "assay": "[…] counterscreen for selective VIM-2 inhibitors: dose response biochemical high throughput screening assay to identify inhibitors of IMP-1 metallo-beta-lactamase."}, "Beta-lactamase [16]": {"molecular_target": "T6, Beta-lactamase", "assay": "Late stage results from the probe development efforts to identify selective inhibitors of VIM-2 metallo-beta-lactamase: probe results. Panel member name: Nitrocefin-based TEM-1 Inhibition Counterscreen"}}, "note": "Activity calls are given as the source filed them."}
{"smiles": "O=C(CCS(=O)(=O)Cc1ccccc1F)N1CCc2ccccc2C1", "values": [{"measurement": "IC50", "setting": "[1]", "value": "7.69 µM (active)"}, {"measurement": "IC50", "setting": "[2]", "value": "> 100 µM (inactive)"}]}
{"smiles": "COc1ccc(-n2nc(C(=O)NCC(=O)Nc3cccc(Cl)c3)c3ccccc3c2=O)cc1OC", "values": [{"measurement": "AC50", "setting": "[3]", "value": "17.4 µM (active)"}, {"measurement": "IC50", "setting": "[4]", "value": "83.9 µM (inactive)"}]}
{"smiles": "O=C(COC(=O)CCN1C(=O)C2CC=CCC2C1=O)NCCc1ccc(F)cc1", "note": "(stereo not given)", "values": [{"measurement": "IC50", "setting": "[5]", "value": "19.1 µM (inactive)"}, {"measurement": "IC50", "setting": "[6]", "value": "35.9 µM (inactive)"}, {"measurement": "IC50", "setting": "Steroidogenic factor 1", "value": "2.33 µM (active)"}]}
{"smiles": "Cc1ccc(NC(=O)NNC(=O)c2cc3ccccc3cc2O)cc1", "values": [{"measurement": "EC50", "setting": "[7]", "value": "9.83 µM (active)"}, {"measurement": "IC50", "setting": "Albumin", "value": "> 94.1 µM (inactive)"}, {"measurement": "EC50", "setting": "[8]", "value": "> 100 µM (inactive)"}, {"measurement": "EC50", "setting": "[9]", "value": "14.9 µM (active)"}, {"measurement": "EC50", "setting": "[10]", "value": "13 µM (active)"}]}
{"smiles": "CC(=O)c1cn(CC(=O)NCCc2c[nH]c3ccccc23)c2ccccc12", "values": [{"measurement": "IC50", "setting": "Galanin receptor type 3", "value": "2.7 µM (active)"}, {"measurement": "EC50", "setting": "cells", "value": "> 29.9 µM (inactive)"}]}
{"smiles": "O=c1[nH]c2c(s1)C(c1cccnc1)C1C3CCC(C3)C1S2", "note": "(stereo not given)", "values": [{"measurement": "IC50", "setting": "Beta Lactamase [11]", "value": "> 60 µM (inactive)"}, {"measurement": "IC50", "setting": "Beta-lactamase [12]", "value": "> 59.6 µM (inactive)"}, {"measurement": "IC50", "setting": "Beta Lactamase [13]", "value": "223 nM (active)"}, {"measurement": "IC50", "setting": "Beta-lactamase [14]", "value": "> 59.6 µM (inactive)"}, {"measurement": "IC50", "setting": "Beta-lactamase [15]", "value": "> 59.6 µM (inactive)"}, {"measurement": "IC50", "setting": "Beta-lactamase [16]", "value": "> 60 µM (active)"}]}
